Results from patent US6737383B1, “Herbicidal oxadiazolidines” (priority 1999, dated 2004).

Key:
[1] = tested on: blackgrass; test: Test B pre/postemergence blackgrass; type: in vivo, Alopecurus myosuroides
Outline: (§1)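 Response is a visual 0-to-10 score relative to untreated plants, where 0 means no effect and 10 means complete control, taken twelve to sixteen days after application. Treatments went onto soil at planting and onto foliage of 1- to 4-leaf plants, using a surfactant-containing non-phytotoxic solvent.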

[2] = tested on: crabgrass; test: Test B pre/postemergence crabgrass; type: in vivo, Digitaria sanguinalis
Outline: as §1

[3] = tested on: morningglory; test: Test B pre/postemergence morningglory; type: in vivo, Ipomoea hederacea
Outline: as §1

[4] = tested on: bamyardgrass; test: Test B flood test barnyardgrass; type: in vivo, Echinochloa crus-galli
Outline: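 Flood test on plants grown to the 2-leaf stage; treated plants kept in greenhouse twelve to sixteen days, then visually rated against controls on a 0 (no effect) to 10 (complete control) scale.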

[5] = tested on: winter wheat; test: Test E winter wheat; type: in vivo, Triticum aestivum; conditions: Postemergence; for Plant response rating, Wheat (winter): 0 to 100 scale; for Wheat (winter) plant response rating: Rate 250 g/ha, 0 to 100 scale where 0 is no effect and 100 is complete control
Outline: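 Compounds formulated in non-phytotoxic solvent mixture with surfactant; for postemergence, sprayed on plants at 1- to 4-leaf stage grown in 60:40 sandy loam/greenhouse potting mix. Kept in greenhouse ~21 to 28 days, then visually rated against untreated controls.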

[6] = tested on: blackgrass; test: Test E blackgrass; type: in vivo, Alopecurus myosuroides; conditions: Preemergence; for Blackgrass plant response rating (0 to 100 scale): Rate 250 g/ha
[7] = tested on: green foxtail; test: Test E green foxtail; type: in vivo, Setaria viridis; conditions: Preemergence; for Green foxtail plant response rating (0 to 100 scale): Rate 250 g/ha
[8] = tested on: Italian ryegrass; test: Test E Italian ryegrass; type: in vivo, Lolium multiflorum; conditions: Preemergence; for I. Ryegrass plant response rating (0 to 100 scale): Rate 250 g/ha
[9] = tested on: winter wheat; test: Test E winter wheat; type: in vivo, Triticum aestivum; conditions: Preemergence; for Wheat (winter) plant response rating (0 to 100 scale): Rate 250 g/ha
[10] = tested on: wild oat; test: Test E wild oat; type: in vivo, Avena fatua; conditions: Preemergence; for Wild oat plant response rating (0 to 100 scale): Rate 250 g/ha
[11] = tested on: winter barley; test: Test E winter barley; type: in vivo, Hordeum vulgare; conditions: Preemergence; for Barley (winter) plant response rating (0 to 100 scale): Rate 250 g/ha
[12] = Preemergence, Rate 62 g/ha, scale of 0 to 10 where 0 is no effect and 10 is complete control
[13] = Preemergence, Rate 125 g/ha, 0 is no effect, 10 is complete control
[14] = Preemergence, Rate 250 g/ha, scale 0 to 10, 0 is no effect, 10 is complete control
[15] = Preemergence, Rate 500 g/ha, scale of 0 to 10 where 0 is no effect and 10 is complete control
[16] = Rate 62 g/ha, Postemergence, scale of 0 to 10 where 0 is no effect and 10 is complete control
[17] = Rate 125 g/ha, Postemergence, scale 0 to 10
[18] = Rate 500 g/ha, Postemergence, scale 0 to 10
[19] = Rate 62 g/ha, headed Pre-emergence (flood test species), scale 0 to 10 (0 no effect, 10 complete control)
[20] = Rate 125 g/ha, Pre-emergence, flood test species, scale 0 to 10 where 0 is no effect and 10 is complete control
[21] = Rate 250 g/ha, Pre-emergence, flood-test species, scale 0 to 10, 0 is no effect, 10 is complete control
[22] = Rate 500 g/ha, Pre-emergence, flood test species, scale 0 to 10 (0 no effect, 10 complete control)
[23] = Rate 500 g/ha, 0 is no effect, 100 is complete control
[24] = Rate 500 g/ha, 0 to 100 scale where 0 is no effect and 100 is complete control
[25] = Rate 1000 g/ha, 0 to 100 scale where 0 is no effect and 100 is complete control
[26] = Preemergence, Rate 250 g/ha, scale of 0 to 10 where 0 is no effect and 10 is complete control
[27] = Rate 125 g/ha, Preemergence, scale of 0 to 10 where 0 is no effect and 10 is complete control
[28] = Rate 125 g/ha, 0 is no effect, 100 is complete control
[29] = Rate 125 g/ha, 0 to 100 scale (0 no effect, 100 complete control)
[30] = Rate 500 g/ha, Postemergence, scale 0 to 10, 0 no effect, 10 complete control

CC(C)N(C(=O)n1oc(=O)n(Cc2ccco2)c1=O)c1ccc(F)cc1 [Compound 207]
Blackgrass plant response rating [1, 12]: 0 | Blackgrass plant response rating (0 to 10 scale) [1, 13]: 0 | Blackgrass plant response rating [1, 14]: 4 | Plant response rating, Blackgrass [1, 15]: 7 | Blackgrass plant response rating [1, 16]: 0 | Blackgrass plant response rating [1, 17]: 2 | Plant response rating (0 to 10; 0 is no effect, 10 is complete control), Blackgrass ([1]; Rate 250 g/ha, Postemergence): 2 | Blackgrass plant response rating [1, 18]: 4 | Crabgrass plant response rating [2, 12]: 0 | Crabgrass plant response rating (0 to 10 scale) [2, 13]: 0 | Crabgrass plant response rating [2, 14]: 3 | Plant response rating, Crabgrass [2, 15]: 4 | Crabgrass plant response rating [2, 16]: 0 | Crabgrass plant response rating [2, 17]: 0 | Plant response rating (0 to 10; 0 is no effect, 10 is complete control), Crabgrass ([2]; Rate 250 g/ha, Postemergence): 2 | Crabgrass plant response rating [2, 18]: 3 | Morningglory plant response rating [3, 12]: 0 | Morningglory plant response rating (0 to 10 scale) [3, 13]: 0 | Morningglory plant response rating [3, 14]: 0 | Plant response rating, Morningglory [3, 15]: 0 | Morningglory plant response rating [3, 16]: 0 | Morningglory plant response rating [3, 17]: 2 | Plant response rating (0 to 10; 0 is no effect, 10 is complete control), Morningglory ([3]; Rate 250 g/ha, Postemergence): 2 | Morningglory plant response rating [3, 18]: 3 | Barnyardgrass plant response rating [4, 19]: 0 | Barnyardgrass plant response rating [4, 20]: 0 | Barnyardgrass plant response rating [4, 21]: 2 | Barnyardgrass plant response rating [4, 22]: 7 | Plant response rating, Wheat (winter) ([5]; Rate 1000 g/ha, 0 is no effect and 100 is complete control): 50 | Plant response rating, Wheat (winter) [5, 23]: 30 | Blackgrass plant response rating (0 to 100 scale) [6]: 30 | Plant response rating, Blackgrass [6, 24]: 80 | Plant response rating, Blackgrass [6, 25]: 85 | Green foxtail plant response rating (0 to 100 scale) [7]: 80 | Plant response rating, Green foxtail [7, 24]: 90 | Plant response rating, Green foxtail [7, 25]: 100 | I. Ryegrass plant response rating (0 to 100 scale) [8]: 40 | Plant response rating, I. Ryegrass [8, 24]: 55 | Plant response rating, I. Ryegrass [8, 25]: 30 | Wheat (winter) plant response rating (0 to 100 scale) [9]: 60 | Plant response rating, Wheat (winter) [9, 24]: 70 | Plant response rating, Wheat (winter) [9, 25]: 70 | Wild oat plant response rating (0 to 100 scale) [10]: 65 | Plant response rating, Wild oat [10, 24]: 70 | Plant response rating, Wild oat [10, 25]: 70 | Barley (winter) plant response rating (0 to 100 scale) [11]: 65 | Plant response rating, Barley (winter) [11, 24]: 70 | Plant response rating, Barley (winter) [11, 25]: 80

CC(C)N(C(=O)n1oc(=O)n(CCC(F)=C(F)F)c1=O)c1ccc(F)cc1 [Compound 218]
Blackgrass plant response rating [1, 12]: 8 | Blackgrass plant response rating [1, 26]: 9 | Plant response rating, Blackgrass [1, 15]: 10 | Blackgrass plant response rating [1, 16]: 5 | Blackgrass plant response rating [1, 17]: 5 | Blackgrass plant response rating [1, 27]: 9 | Plant response rating (0 to 10; 0 is no effect, 10 is complete control), Blackgrass ([1]; Rate 250 g/ha, Postemergence): 7 | Blackgrass plant response rating [1, 18]: 8 | Crabgrass plant response rating [2, 12]: 4 | Crabgrass plant response rating [2, 26]: 6 | Plant response rating, Crabgrass [2, 15]: 7 | Crabgrass plant response rating [2, 16]: 1 | Crabgrass plant response rating [2, 17]: 4 | Crabgrass plant response rating [2, 27]: 4 | Plant response rating (0 to 10; 0 is no effect, 10 is complete control), Crabgrass ([2]; Rate 250 g/ha, Postemergence): 5 | Crabgrass plant response rating [2, 18]: 9 | Morningglory plant response rating [3, 12]: 0 | Morningglory plant response rating [3, 26]: 0 | Plant response rating, Morningglory [3, 15]: 0 | Morningglory plant response rating [3, 16]: 3 | Morningglory plant response rating [3, 17]: 4 | Morningglory plant response rating [3, 27]: 0 | Plant response rating (0 to 10; 0 is no effect, 10 is complete control), Morningglory ([3]; Rate 250 g/ha, Postemergence): 8 | Morningglory plant response rating [3, 18]: 9 | Barnyardgrass plant response rating [4, 19]: 0 | Barnyardgrass plant response rating [4, 20]: 0 | Barnyardgrass plant response rating [4, 21]: 0 | Barnyardgrass plant response rating [4, 22]: 0 | Plant response rating, Wheat (winter) [5, 28]: 65 | Wheat (winter) plant response rating [5]: 70 | Plant response rating, Wheat (winter) [5, 23]: 85 | Plant response rating, Blackgrass [6, 29]: 65 | Blackgrass plant response rating (0 to 100 scale) [6]: 70 | Plant response rating, Blackgrass [6, 24]: 100 | Plant response rating, Green foxtail [7, 29]: 30 | Green foxtail plant response rating (0 to 100 scale) [7]: 55 | Plant response rating, Green foxtail [7, 24]: 85 | Plant response rating, I. Ryegrass [8, 29]: 55 | I. Ryegrass plant response rating (0 to 100 scale) [8]: 60 | Plant response rating, I. Ryegrass [8, 24]: 70 | Plant response rating, Wheat (winter) [9, 29]: 50 | Wheat (winter) plant response rating (0 to 100 scale) [9]: 40 | Plant response rating, Wheat (winter) [9, 24]: 50 | Plant response rating, Wild oat [10, 29]: 70 | Wild oat plant response rating (0 to 100 scale) [10]: 65 | Plant response rating, Wild oat [10, 24]: 70 | Plant response rating, Barley (winter) [11, 29]: 40 | Barley (winter) plant response rating (0 to 100 scale) [11]: 50 | Plant response rating, Barley (winter) [11, 24]: 65

CC(C)N(C(=O)n1oc(=O)n(C2CC2)c1=O)c1ccc(Cl)cc1 [Compound 241]
Blackgrass plant response rating [1, 12]: 6 | Blackgrass plant response rating [1, 26]: 7 | Plant response rating, Blackgrass [1, 15]: 10 | Blackgrass plant response rating [1, 16]: 3 | Blackgrass plant response rating [1, 17]: 7 | Blackgrass plant response rating [1, 27]: 6 | Plant response rating (0 to 10; 0 is no effect, 10 is complete control), Blackgrass ([1]; Rate 250 g/ha, Postemergence): 8 | Blackgrass plant response rating [1, 30]: 9 | Crabgrass plant response rating [2, 12]: 3 | Crabgrass plant response rating [2, 26]: 10 | Plant response rating, Crabgrass [2, 15]: 10 | Crabgrass plant response rating [2, 16]: 2 | Crabgrass plant response rating [2, 27]: 7 | Plant response rating (0 to 10; 0 is no effect, 10 is complete control), Crabgrass ([2]; Rate 250 g/ha, Postemergence): 8 | Crabgrass plant response rating [2, 30]: 9 | Morningglory plant response rating [3, 12]: 0 | Morningglory plant response rating [3, 26]: 3 | Plant response rating, Morningglory [3, 15]: 5 | Morningglory plant response rating [3, 16]: 3 | Morningglory plant response rating [3, 27]: 0 | Plant response rating (0 to 10; 0 is no effect, 10 is complete control), Morningglory ([3]; Rate 250 g/ha, Postemergence): 5 | Morningglory plant response rating [3, 30]: 8 | Barnyardgrass plant response rating [4, 19]: 0 | Barnyardgrass plant response rating [4, 20]: 0 | Barnyardgrass plant response rating [4, 21]: 0 | Barnyardgrass plant response rating [4, 22]: 0 | Plant response rating, Wheat (winter) [5, 28]: 20 | Wheat (winter) plant response rating [5]: 60 | Plant response rating, Wheat (winter) [5, 23]: 50 | Plant response rating, Blackgrass [6, 29]: 60 | Blackgrass plant response rating (0 to 100 scale) [6]: 100 | Plant response rating, Blackgrass [6, 24]: 98 | Plant response rating, Green foxtail [7, 29]: 65 | Green foxtail plant response rating (0 to 100 scale) [7]: 90 | Plant response rating, Green foxtail [7, 24]: 90 | Plant response rating, I. Ryegrass [8, 29]: 60 | I. Ryegrass plant response rating (0 to 100 scale) [8]: 70 | Plant response rating, I. Ryegrass [8, 24]: 100 | Plant response rating, Wheat (winter) [9, 29]: 40 | Wheat (winter) plant response rating (0 to 100 scale) [9]: 50 | Plant response rating, Wheat (winter) [9, 24]: 60 | Plant response rating, Wild oat [10, 29]: 50 | Wild oat plant response rating (0 to 100 scale) [10]: 60 | Plant response rating, Wild oat [10, 24]: 55 | Plant response rating, Barley (winter) [11, 29]: 40 | Barley (winter) plant response rating (0 to 100 scale) [11]: 50 | Plant response rating, Barley (winter) [11, 24]: 60
